These results are taken from patent US20250129070A1, “BIFUNCTIONAL ANDROGEN RECEPTOR COMPOUNDS” (priority 2023, published 2025).

Structures are written as SMILES.

For orientation: IC50 means the concentration at which inhibition is half-maximal. High values mean a need for much substance, low ones inhibition by little substance. For orientation: EC50 means the concentration needed to bring the measured effect to its halfway point. The low end stands for greater potency, the high end for weaker potency.

The subject of the first assay is VCaP cells. Briefly: VCaP growth inhibition assay. The format is cell-based. The following applies: 30 pM R1881, 9 days, CTG. Here is the method: VCaP cells (ATCC Cat #CRL-2876) are plated at 1×10^4 cells per well of a white plastic 96-well cluster plate (Thermo Scientific Nunc Cat #165306) in 100 uL phenol red-free DMEM (Gibco Cat #21063-029) media with 5% CSS (Omega Scientific Cat #FB-04). Cluster plates are returned to the incubator (37*C/5% CO2) for 72 hours prior to treatment. Just prior to treatment, 100 μL of phenol red-free DMEM/5% CSS and […] R1881 (Sigma Cat #R0908-10 mg) was added to each well of the cluster plates (Final R1881 concentration=30 pM). Compounds (200×) were added to each well in a volume of 1 uL, with serial dilutions (1:5) from 20 uM to 2 pM (final concentrations in well are 100 nM to 10 fM). Cluster plates are returned to the incubator for 9 days.
After the 9-day treatment period, media was removed from the cluster plates by inversion and 100 uL room temperature CTG reagent (Promega Cat #G7573) is added to each well. The cluster plates are placed on a shaker and incubated at room temperature for 20 minutes. Following this shaking/incubation, cluster plates are read on a luminometer (BMG ClarioStar). IC50 values are obtained by graphing the RLU data vs. compound concentration with nonlinear regression 4-parameter logistic curves (GraphPad Prism).
Consider `CC(=O)N1CCc2c(c(N3CCCc4cc(-c5cnn(C)c5)c(C(F)F)cc43)nn2C2CCN(C[C@@H]3CCN(c4ncc(C(=O)NC5C(C)(C)C(Oc6ccc(C#N)c(Cl)c6)C5(C)C)cn4)C[C@@H]3C)CC2)C1` (some centres unmarked) [Compound 363], for which the IC50 was no more than 0.1 nM.
On the same count and under the same terms, the value for `COc1cc(OC2C(C)(C)C(NC(=O)c3ccc(N4CCC(CCc5ccc(-c6cc7c(cn6)N(c6nn(C8CCOCC8)c8c6CN(C(C)=O)CC8)CCC7)cn5)CC4)cc3)C2(C)C)ccc1C#N` (centres unmarked) [Compound 246, 4-[4-[2-[5-[1-(5-acetyl-1-tetrahydropyran-4-yl-6,7-dihydro-4H-pyrazolo[4,3-c]pyridin-3-yl)-3,4-dihydro-2H-1,7-naphthyridin-6-yl]-2-pyridyl]ethyl]-1-piperidyl]-N-[3-(4-cyano-3-methoxy-phenoxy)-2,2,4,4-tetramethyl-cyclobutyl]benzamide] was 0.1 to 1 nM; that for `CC(=O)N1CCc2c(c(N3CCCc4cc(-c5cnn(C)c5)c(C(F)F)cc43)nn2C2CCN(CCOCc3ncc(C(=O)NC4C(C)(C)C(Oc5ccc(C#N)c(Cl)c5)C4(C)C)cn3)CC2)C1` (centres unmarked) [Compound 88, 2-[2-[4-[5-acetyl-3-[7-(difluoromethyl)-6-(1-methylpyrazol-4-yl)-3,4-dihydro-2H-quinolin-1-yl]-6,7-dihydro-4H-pyrazolo[4,3-c]pyridin-1-yl]-1-piperidyl]ethoxymethyl]-N-[3-(3-chloro-4-cyano-phenoxy)-2,2,4,4-tetramethyl-cyclobutyl]pyrimidine-5-carboxamide] was 0.1 to 1 nM; that for `CC(=O)N1CCc2c(c(Nc3ccc(-c4cnn(C)c4)cc3F)nn2C2CCN(CC3CCN(c4ncc(C(=O)NC5C(C)(C)C(Oc6ccc(C#N)c(Cl)c6)C5(C)C)cn4)CC3)C2)C1` (centres unmarked) [Compound 7, 2-[4-[[3-[5-acetyl-3-[2-fluoro-4-(1-methylpyrazol-4-yl)anilino]-6,7-dihydro-4H-pyrazolo[4,3-c]pyridin-1-yl]pyrrolidin-1-yl]methyl]-1-piperidyl]-N-[3-(3-chloro-4-cyano-phenoxy)-2,2,4,4-tetramethyl-cyclobutyl]pyrimidine-5-carboxamide] was 0.1 to 1 nM.
Same read-out and setting: as for `COc1cc(OC2C(C)(C)C(NC(=O)c3ccc(N4CCC(N5CCC6(CCC(n7nc(N8CCCc9cc(-c%10cnn(C)c%10)c(C(F)F)cc98)c8c7CCN(C(C)=O)C8)CC6)CC5)CC4)cc3)C2(C)C)ccc1C#N` (centres unmarked) [Compound 300, 4-[4-[9-[5-acetyl-3-[7-(difluoromethyl)-6-(1-methylpyrazol-4-yl)-3,4-dihydro-2H-quinolin-1-yl]-6,7-dihydro-4H-pyrazolo[4,3-c]pyridin-1-yl]-3-azaspiro[5.5]undecan-3-yl]-1-piperidyl]-N-[3-(4-cyano-3-methoxy-phenoxy)-2,2,4,4-tetramethyl-cyclobutyl]benzamide], the figure is no more than 0.1 nM; as for `CC(=O)N1CCc2c(c(N3CCCc4cc(-c5cnn(C)c5)c(C(F)F)cc43)nn2CCN2CCN(c3ncc(C(=O)NC4C(C)(C)C(Oc5ccc(C#N)c(Cl)c5)C4(C)C)cn3)CC2)C1` (centres unmarked) [Compound 52, 2-[4-[2-[5-acetyl-3-[7-(difluoromethyl)-6-(1-methylpyrazol-4-yl)-3,4-dihydro-2H-quinolin-1-yl]-6,7-dihydro-4H-pyrazolo[4,3-c]pyridin-1-yl]ethyl]piperazin-1-yl]-N-[3-(3-chloro-4-cyano-phenoxy)-2,2,4,4-tetramethyl-cyclobutyl]pyrimidine-5-carboxamide], 0.1 to 1 nM.
In the case of `COc1cc(OC2C(C)(C)C(NC(=O)c3ccc(N4CCC(N5CCC(n6cc(-c7cc8cccc(-c9nn(C%10CCOCC%10)c%10c9CN(C(C)=O)CC%10)c8cn7)cn6)CC5)CC4)cc3)C2(C)C)ccc1C#N` (centres unmarked) [Compound 270, 4-[4-[4-[4-[8-(5-acetyl-1-tetrahydropyran-4-yl-6,7-dihydro-4H-pyrazolo[4,3-c]pyridin-3-yl)-3-isoquinolyl]pyrazol-1-yl]-1-piperidyl]-1-piperidyl]-N-[3-(4-cyano-3-methoxy-phenoxy)-2,2,4,4-tetramethylcyclobutyl]benzamide], the IC50 is 0.1 to 1 nM.
In the case of `COc1cc(OC2C(C)(C)C(NC(=O)c3ccc(N4CCC5(CCC(n6cc(-c7cc8cccc(-c9nn(C%10CCOCC%10)c%10c9CN(C(C)=O)CC%10)c8cn7)cn6)CC5)CC4)cc3)C2(C)C)ccc1C#N` (centres unmarked) [Compound 269, 4-[9-[4-[8-(5-acetyl-1-tetrahydropyran-4-yl-6,7-dihydro-4H-pyrazolo[4,3-c]pyridin-3-yl)-3-isoquinolyl]pyrazol-1-yl]-3-azaspiro[5.5]undecan-3-yl]-N-[3-(4-cyano-3-methoxy-phenoxy)-2,2,4,4-tetramethyl-cyclobutyl]benzamide], the IC50 fell in the range of 0.1 to 1 nM.
On the same count and under the same terms, as for `CC(=O)N1CCc2c(c(Nc3ccc(-c4cnn(C)c4)cc3F)nn2CCOC2CCN(c3ncc(C(=O)NC4C(C)(C)C(Oc5ccc(C#N)c(Cl)c5)C4(C)C)cn3)CC2)C1` (centres unmarked) [Compound 2, 2-[4-[2-[5-acetyl-3-[2-fluoro-4-(1-methylpyrazol-4-yl)anilino]-6,7-dihydro-4H-pyrazolo[4,3-c]pyridin-1-yl]ethoxy]-1-piperidyl]-N-[3-(3-chloro-4-cyano-phenoxy)-2,2,4,4-tetramethyl-cyclobutyl]pyrimidine-5-carboxamide], the figure is 1 to 100 nM; as for `CC(=O)N1CCc2c(c(N3CCCc4cc(-c5cnn(C)c5)c(C(F)F)cc43)nn2C2CCN(C3CCN(c4ccc5c(n4)CN(C4C(C)(C)C(Oc6ccc(C#N)c(Cl)c6)C4(C)C)C5=O)CC3)CC2)C1` (centres unmarked) [Compound 297, 4-[3-[2-[4-[4-[5-acetyl-3-[7-(difluoromethyl)-6-(1-methylpyrazol-4-yl)-3,4-dihydro-2H-quinolin-1-yl]-6,7-dihydro-4H-pyrazolo[4,3-c]pyridin-1-yl]-1-piperidyl]-1-piperidyl]-5-oxo-7H-pyrrolo[3,4-b]pyridin-6-yl]-2,2,4,4-tetramethyl-cyclobutoxy]-2-chloro-benzonitrile], 1 to 100 nM.
Regarding `CC(=O)N1CCc2c(c(Nc3ccc(-c4cnn(C)c4)cc3F)nn2C2CN(C(=O)CN3CCN(c4ncc(C(=O)NC5C(C)(C)C(Oc6ccc(C#N)c(Cl)c6)C5(C)C)cn4)CC3)C2)C1` (centres unmarked) [Compound 165, 2-[4-[2-[3-[5-acetyl-3-[2-fluoro-4-(1-methylpyrazol-4-yl)anilino]-6,7-dihydro-4H-pyrazolo[4,3-c]pyridin-1-yl]azetidin-1-yl]-2-oxo-ethyl]piperazin-1-yl]-N-[3-(3-chloro-4-cyano-phenoxy)-2,2,4,4-tetramethyl-cyclobutyl]pyrimidine-5-carboxamide], the IC50 was no more than 0.1 nM.
Take `CC(=O)N1CCc2c(c(N3CCCc4cc(-c5cnn(C)c5)c(C(F)F)cc43)nn2C2CCC3(CC2)CCN(c2ccc4c(n2)CN(C2C(C)(C)C(Oc5ccc(C#N)c(Cl)c5)C2(C)C)C4=O)CC3)C1` (centres unmarked) [Compound 298, 4-[3-[2-[9-[5-acetyl-3-[7-(difluoromethyl)-6-(1-methylpyrazol-4-yl)-3,4-dihydro-2H-quinolin-1-yl]-6,7-dihydro-4H-pyrazolo[4,3-c]pyridin-1-yl]-3-azaspiro [5.5]undecan-3-yl]-5-oxo-7H-pyrrolo[3,4-b]pyridin-6-yl]-2,2,4,4-tetramethyl-cyclobutoxy]-2-chloro-benzonitrile]: the IC50 is greater than 100 nM.
`COc1cc(OC2C(C)(C)C(NC(=O)c3ccc(N4CCC5(CC4)CC(Oc4ccc(-c6cc7c(cc6C(F)F)N(c6nn(C8CCOCC8)c8c6CN(C(C)=O)CC8)CCC7)cn4)C5)cc3)C2(C)C)ccc1C#N` (centres unmarked) [Compound 306, 4-[2-[[5-[1-(5-acetyl-1-tetrahydropyran-4-yl-6,7-dihydro-4H-pyrazolo[4,3-c]pyridin-3-yl)-7-(difluoromethyl)-3,4-dihydro-2H-quinolin-6-yl]-2-pyridyl]oxy]-7-azaspiro[3.5]nonan-7-yl]-N-[3-(4-cyano-3-methoxy-phenoxy)-2,2,4,4-tetramethyl-cyclobutyl]benzamide]: the IC50 was in the range of 1 to 100 nM.
Compound `CC(=O)N1CCc2c(c(Nc3ccc(-c4cnn(C)c4)cc3F)nn2C2CCN(CCC3CCN(c4ncc(C(=O)NC5C(C)(C)C(Oc6ccc(C#N)c(Cl)c6)C5(C)C)cn4)CC3)CC2)C1` (centres unmarked) [Compound 168, 2-[4-[2-[4-[5-acetyl-3-[2-fluoro-4-(1-methylpyrazol-4-yl)anilino]-6,7-dihydro-4H-pyrazolo[4,3-c]pyridin-1-yl]-1-piperidyl]ethyl]-1-piperidyl]-N-[3-(3-chloro-4-cyano-phenoxy)-2,2,4,4-tetramethyl-cyclobutyl]pyrimidine-5-carboxamide] gave a 50% inhibitory concentration (IC50) of 0.1 to 1 nM.
`COc1cc(OC2C(C)(C)C(NC(=O)c3ccc(N4CC(N5CCC6(CCC(n7nc(N8CCCc9cc(-c%10cnn(C)c%10)c(C(F)F)cc98)c8c7CCN(C(C)=O)C8)CC6)CC5)C4)cc3)C2(C)C)ccc1C#N` (centres unmarked) [Compound 301, 4-[3-[9-[5-acetyl-3-[7-(difluoromethyl)-6-(1-methylpyrazol-4-yl)-3,4-dihydro-2H-quinolin-1-yl]-6,7-dihydro-4H-pyrazolo[4,3-c]pyridin-1-yl]-3-azaspiro[5.5]undecan-3-yl]azetidin-1-yl]-N-[3-(4-cyano-3-methoxy-phenoxy)-2,2,4,4-tetramethyl-cyclobutyl]benzamide] had an IC50 of no more than 0.1 nM.

The next assay concerns AR / CBP ternary complex. Briefly: Ternary complex formation assay (sandwich ELISA, AR capture / CBP detection) in VCaP cell lysates. The format is cell-based. The following applies: 1.5 hours treatment, sandwich ELISA (AR capture, CBP or p300 detection). A digest of the protocol:
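Anti-AR (AR 441)-coated plates capture AR from lysates of VCaP cells grown ≥3 days at 50K/well in 5% charcoal-stripped FBS, dosed with bifunctional for 1.5 h and lysed 30 min at 4 °C. Co-captured CBP/p300 is probed with rabbit mAb and HRP anti-rabbit, then QuantaRed fluorescence (570/585) is read at 0, 5 and 15 min.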
For orientation: ELISA stands for enzyme-linked immunosorbent assay.
The compound `CC(=O)N1CCc2c(c(N3CCCc4cc(-c5cnn(C)c5)c(C(F)F)cc43)nn2C2CCN(C[C@@H]3CCN(c4ncc(C(=O)NC5C(C)(C)C(Oc6ccc(C#N)c(Cl)c6)C5(C)C)cn4)C[C@@H]3C)CC2)C1` (some centres unmarked) [Compound 363] had an EC50 of less than 1 nM.
The compound `COc1cc(OC2C(C)(C)C(NC(=O)c3ccc(N4CCC(CCc5ccc(-c6cc7c(cn6)N(c6nn(C8CCOCC8)c8c6CN(C(C)=O)CC8)CCC7)cn5)CC4)cc3)C2(C)C)ccc1C#N` (centres unmarked) [Compound 246, 4-[4-[2-[5-[1-(5-acetyl-1-tetrahydropyran-4-yl-6,7-dihydro-4H-pyrazolo[4,3-c]pyridin-3-yl)-3,4-dihydro-2H-1,7-naphthyridin-6-yl]-2-pyridyl]ethyl]-1-piperidyl]-N-[3-(4-cyano-3-methoxy-phenoxy)-2,2,4,4-tetramethyl-cyclobutyl]benzamide] displayed an EC50 of less than 1 nM.
